Test results taken from patent publication US20260137706A1, “METHODS OF TREATING INFLAMMATORY DISEASES” (INTERLINE THERAPEUTICS, INC., priority 2023, published 2026).
Where two headings read alike, the source gives them in different places.

Key:
[1] = biological target: T1, GST-RIPK2 fusion protein (human RIPK2, amino acids 1-310) (Homo sapiens, UniProt O43353); test: RIPK2 binding competition assay (TR-FRET, Tracer 199 displacement)
T1 construct: made in house; host or cells: baculovirus infected Sf9 cells
Summary of the method: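 IC50 derived from the TR-FRET emission ratio (665/620 nm, 337 nm excitation), normalized with no-inhibitor and no-enzyme controls. Incubation 45 min at 22 °C, pH 7.5 Tris buffer, with final 10 nM tracer, 1 nM Sf9-expressed GST-RIPK2 fragment (aa 1-310) and 0.5 nM Tb-labelled anti-GST.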

[2] = biological target: T2, binding of His-XIAP(BIR2)-avi fusion protein to GST-RIPK2 fusion protein (RIPK2/XIAP) (Homo sapiens, UniProt O43353); test: RIPK2-XIAP binding competition PPI assay (TR-FRET); settings: for Emax: read-out: PPI Amax bin
T2 construct: made in house; host or cells: baculovirus infected Sf9 cells
Summary of the method: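 Compounds (in DMSO, 100-fold stock) incubated 120 min at 23 °C with 1 nM GST-RIPK2 (aa 1-310) and 25 nM His-XIAP(BIR2 aa 152-231)-avi, plus anti-His-XL665 and anti-GST-Tb, in pH 7.5 Tris buffer. Read-out: 665/520 nm emission ratio. Normalized to no-inhibitor (0%) and 50 nM GSK583 (−100%); Amax binned A–D.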

[3] = tested on: NF-κB pathway (SEAP) in THP1-Dual cells; test: THP-1 Dual cell SEAP assay (L18-MDP stimulated); type: cell-based; settings: Homo sapiens, THP1-Dual, read-out: NF-κB THP1 IC50 bin
Summary of the method: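 IC50 values derive from non-linear regression of % inhibition, calculated against DMSO/L18-MDP-treated wells after media-only subtraction. NF-κB SEAP activity was read at OD 620-655 nm (QUANTI-Blue, 2 h, 37 °C) from supernatants of THP1-Dual cells. Cells had been compound-treated 30 min before overnight (20-24 h) stimulation with 10 ng/mL final L18-MDP.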

[4] = 10 nM Tracer 199, 1 nM GST-RIPK2, read-out: RIPK2 IC50
[5] = RIPK2/XIAP binding competition PPI assay, Amax
[6] = RIPK2/XIAP binding competition PPI assay, read-out: PPI IC50 bin

T1 sequence (O43353 1-310): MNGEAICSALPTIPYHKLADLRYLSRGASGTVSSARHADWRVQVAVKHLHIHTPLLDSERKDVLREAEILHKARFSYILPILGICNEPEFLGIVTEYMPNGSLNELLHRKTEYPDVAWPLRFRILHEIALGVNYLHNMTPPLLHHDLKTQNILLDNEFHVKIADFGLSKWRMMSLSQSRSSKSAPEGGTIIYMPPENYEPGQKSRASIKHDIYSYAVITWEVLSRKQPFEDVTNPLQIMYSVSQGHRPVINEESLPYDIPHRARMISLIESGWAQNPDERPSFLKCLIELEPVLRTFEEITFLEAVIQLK
T2 sequence (O43353 1-310 limits assumed): as the sequence (O43353 1-310) above

**Q.** COc1cc2ncc(-c3cc(F)c(OC)c(NS(=O)(=O)CC4COC4)c3)n2cc1S(=O)(=O)C(C)(C)C [Example 160, N-(5-(6-(tert-butylsulfonyl)-7-methoxyimidazo[1,2-a]pyridin-3-yl)-3-fluoro-2-methoxyphenyl)-1-(oxetan-3-yl)methanesulfonamide] was tested. Which IC50 [1, 4] did it give?
**A.** < 1 nM

**Q.** And the Emax [2, 5]?
**A.** > 80%

**Q.** And the IC50 [2, 6]?
**A.** < 1 nM

**Q.** And the IC50 [3]?
**A.** < 50 nM

**Q.** How did the IC50 [1, 4] turn out when COc1cc2ncc(-c3cc(F)c(N)nc3F)n2cc1S(=O)(=O)N(C)C [Example 161, 3-(6-amino-2,5-difluoropyridin-3-yl)-7-methoxy-N,N-dimethylimidazo[1,2-a]pyridine-6-sulfonamide] was run?
**A.** > 20 nM

**Q.** What about the IC50 [2, 6] of the same compound?
**A.** > 20 nM

**Q.** And the Emax [2]?
**A.** > 80%

**Q.** And the IC50 [3]?
**A.** > 1000 nM

**Q.** Which IC50 [1, 4] does the source give for CCCS(=O)(=O)Nc1cc(-c2cnc3cc(OC)c(S(=O)(=O)N4CCOCC4)cn23)cc(F)c1OC [Example 162, N-(3-fluoro-2-methoxy-5-(7-methoxy-6-(morpholinosulfonyl)imidazo[1,2-a]pyridin-3-yl)phenyl)propane-1-sulfonamide] here?
**A.** 1 to 2.5 nM

**Q.** And the Emax [2, 5]?
**A.** 55 to 80%

**Q.** And the IC50 [2, 6]?
**A.** 1 to 2.5 nM

**Q.** What about the IC50 [3] of the same compound?
**A.** 50 to 250 nM

**Q.** How did the IC50 [1, 4] turn out when COc1cc2ncc(-c3cc(F)c(N)nc3F)n2cc1S(=O)(=O)N1CCOCC1 [Example 163, 3,6-difluoro-5-(7-methoxy-6-(morpholinosulfonyl)imidazo[1,2-a]pyridin-3-yl)pyridin-2-amine] was run?
**A.** > 20 nM

**Q.** What about the Emax [2, 5] of the same compound?
**A.** > 80%

**Q.** What about the IC50 [2, 6] of the same compound?
**A.** > 20 nM

**Q.** What about the IC50 [3] of the same compound?
**A.** > 1000 nM

**Q.** For COc1cc2ncc(-c3cc(F)c(N)nc3F)n2cc1S(=O)(=O)N1CCNCC1 [Example 164, 3,6-difluoro-5-(7-methoxy-6-(piperazin-1-ylsulfonyl)imidazo[1,2-a]pyridin-3-yl)pyridin-2-amine], which IC50 [1, 4] is on record?
**A.** > 20 nM

**Q.** And the Emax [2, 5]?
**A.** > 80%

**Q.** And the IC50 [2, 6]?
**A.** > 20 nM

**Q.** And the IC50 [3]?
**A.** > 1000 nM

**Q.** Which results are given for COc1cc2ncc(-c3cc(F)c(N)nc3F)n2cc1S(=O)(=O)N1CCN(C)CC1 [Example 165, 3,6-difluoro-5-(7-methoxy-6-((4-methylpiperazin-1-yl)sulfonyl)imidazo[1,2-a]pyridin-3-yl)pyridin-2-amine]?
**A.** IC50 [1, 4]: > 20 nM; Emax [2, 5]: > 80%; IC50 [2, 6]: > 20 nM; IC50 [3]: > 1000 nM

**Q.** COc1cc2ncc(-c3cc(F)c(N)nc3F)n2cc1S(=O)(=O)C(C)(C)CN1CCN(C)CC1 [Example 166, 3,6-difluoro-5-(7-methoxy-6-((2-methyl-1-(4-methylpiperazin-1-yl)propan-2-yl)sulfonyl)imidazo[1,2-a]pyridin-3-yl)pyridin-2-amine] was tested. Which IC50 ([1]; RIPK2 IC50 (nM), 10 nM Tracer 199, 1 nM GST-RIPK2) did it give?
**A.** 2.5 to 20 nM

**Q.** What about the IC50 ([2]; PPI IC50 bin, RIPK2/XIAP binding competition PPI assay) of the same compound?
**A.** 2.5 to 20 nM

**Q.** What about the Emax [2] of the same compound?
**A.** > 80%

**Q.** And the IC50 [3]?
**A.** > 1000 nM

**Q.** Which IC50 [1, 4] does the source give for COCC(C)(C)S(=O)(=O)c1cn2c(-c3cc(F)c(N)nc3F)cnc2cc1OC [Example 167, 3,6-difluoro-5-(7-methoxy-6-((1-methoxy-2-methylpropan-2-yl)sulfonyl)imidazo[1,2-a]pyridin-3-yl)pyridin-2-amine] here?
**A.** > 20 nM

**Q.** And the Emax [2, 5]?
**A.** > 80%

**Q.** And the IC50 [2, 6]?
**A.** > 20 nM

**Q.** What about the IC50 [3] of the same compound?
**A.** > 1000 nM

**Q.** With COc1cc2ncc(-c3cc(F)c(N)nc3F)n2cc1S(=O)(=O)C(C)(C)CN1CCOCC1 [Example 168, 3,6-difluoro-5-(7-methoxy-6-((2-methyl-1-morpholinopropan-2-yl)sulfonyl)imidazo[1,2-a]pyridin-3-yl)pyridin-2-amine] as the compound, how does the IC50 [1, 4] read?
**A.** 2.5 to 20 nM

**Q.** What about the Emax [2, 5] of the same compound?
**A.** > 80%

**Q.** And the IC50 [2, 6]?
**A.** 2.5 to 20 nM

**Q.** And the IC50 [3]?
**A.** 250 to 1000 nM

**Q.** For C[C@H](O)COc1cc2ncc(-c3cc(Cl)c(N)nc3F)n2cc1S(=O)(=O)C(C)(C)C [Example 169, (S)-1-((3-(6-amino-5-chloro-2-fluoropyridin-3-yl)-6-(tert-butylsulfonyl)imidazo[1,2-a]pyridin-7-yl)oxy)propan-2-ol], which IC50 [1, 4] is on record?
**A.** 1 to 2.5 nM

**Q.** And the Emax [2, 5]?
**A.** > 80%

**Q.** What about the IC50 [2, 6] of the same compound?
**A.** 1 to 2.5 nM

**Q.** And the IC50 [3]?
**A.** 50 to 250 nM

**Q.** Which results are given for C[C@H](O)COc1cc2ncc(-c3cc(F)c(N)nc3F)n2cc1S(=O)(=O)C(C)(C)C [Example 170, (S)-1-((3-(6-amino-2,5-difluoropyridin-3-yl)-6-(tert-butylsulfonyl)imidazo[1,2-a]pyridin-7-yl)oxy)propan-2-ol]?
**A.** IC50 [1, 4]: 1 to 2.5 nM; Emax [2, 5]: > 80%; IC50 [2, 6]: 1 to 2.5 nM; IC50 [3]: 50 to 250 nM
